Measured values from article PMC11783113, “Mechanistic insights into the selective targeting of P2X3 receptor by camlipixant antagonist” (The Journal of Biological Chemistry, 2024).
Each block holds one compound with its values, some of them ahead of it.

How the values were obtained:
P2X3 receptor [1] = molecular target: T1, P2X3 receptor (Canis lupus, UniProt A0A8I3S575); assay: MST Kd; cryo-EM structure of the P2X3–ATP complex; assay type: binding
T1 construct: gene P2RX3; deletion of five first residues in the N-terminal region and the 33 last residues in the C-terminal region; homotrimer
T1 sequence (A0A8I3S575 6-364): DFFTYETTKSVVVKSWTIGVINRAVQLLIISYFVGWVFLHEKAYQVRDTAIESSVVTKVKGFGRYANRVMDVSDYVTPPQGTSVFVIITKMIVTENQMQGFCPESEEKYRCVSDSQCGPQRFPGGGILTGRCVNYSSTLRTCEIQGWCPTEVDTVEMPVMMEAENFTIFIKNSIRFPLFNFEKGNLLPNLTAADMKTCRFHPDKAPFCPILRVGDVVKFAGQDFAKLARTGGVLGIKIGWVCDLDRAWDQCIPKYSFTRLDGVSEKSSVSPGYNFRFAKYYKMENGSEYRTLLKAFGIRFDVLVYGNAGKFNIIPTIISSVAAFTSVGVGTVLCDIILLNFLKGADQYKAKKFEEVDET

P2X3 receptor [2] = molecular target: T1, P2X3 receptor; assay: ITC Kd; cryo-EM structure of the complex in peptidisc; also calcium influx IC50 […] in cells; assay type: binding
[3] = molecular target: P2X3 receptor (Canis lupus), first five N-terminal and last 33 C-terminal residues deleted (Canis lupus sp.); assay: cryo-EM structure; camlipixant-bound P2X3 reconstituted into peptidisc; camlipixant at a molar ratio of 1:5, 30 min on ice; C3 symmetry

Compound: Nc1ncnc2c1ncn2[C@@H]1O[C@H](COP(=O)(O)OP(=O)(O)OP(=O)(O)O)[C@@H](O)[C@H]1O [ATP]
- Kd (P2X3 receptor [1]): 2000 nM

Compound: CNC(=O)c1cc(F)c(-c2nc3cc(C)ccn3c2C[C@H]2CN(C(=O)OC)CCO2)c(F)c1 [camlipixant]
- Kd (P2X3 receptor [2]): 100 nM

- stoichiometry N [3]: 3
Compound: P2X3 receptor (Canis lupus), first five N-terminal and last 33 C-terminal residues deleted
